Columns and labels:
human CB2 (hCB2) = biological target: T1, human CB2 (hCB2) (Homo sapiens, UniProt P34972); assay: 35S GTPγS binding assay, hCB2 agonist; type: biochemical
T1 construct: (cDNA clone) CNR0200000
Outline: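 Agonist-stimulated [35S]GTPγS (0.1 nM) binding measured by scintillation proximity after 90 min at room temperature. Reaction buffer: 50 mM HEPES pH 7.4, 100 mM NaCl, 5 mM MgCl2, 0.001% saponin plus 20 uM GDP. Membranes (5 μg) came from transfected cells expressing hCB2 cDNA (pcDNA3.1+ vector).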

[1] = biological target: T2, recombinant human cannabinoid receptor CB1 (Homo sapiens, UniProt P21554); assay: Cannabinoid receptor radioligand binding assay, [3H]-CP 55,940 displacement, hCB1
T2 construct: (cDNA clone) CNR01L000
Outline: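 Displacement of 0.5 nM [3H]-CP 55,940 (1 μM unlabeled CP 55,940 for nonspecific) measured by filtration and scintillation counting. Binding ran 90 min at room temperature in pH 7.5 Tris buffer with 0.1% fatty-acid-free BSA, using recombinant hCB1 HEK-293 membranes at 2-10 μg protein.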

[2] = biological target: T3, recombinant human cannabinoid receptor CB2 (Homo sapiens, UniProt P34972); assay: Cannabinoid receptor radioligand binding assay, [3H]-CP 55,940 displacement, hCB2
T3 construct: (cDNA clone) CNR0200000
Outline: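 Receptor source: membrane pellet (40,000×g) from transfected cells, stored in HEPES pH 7.4/MgCl2/EDTA/sucrose buffer.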

T1 sequence (P34972 whole entry): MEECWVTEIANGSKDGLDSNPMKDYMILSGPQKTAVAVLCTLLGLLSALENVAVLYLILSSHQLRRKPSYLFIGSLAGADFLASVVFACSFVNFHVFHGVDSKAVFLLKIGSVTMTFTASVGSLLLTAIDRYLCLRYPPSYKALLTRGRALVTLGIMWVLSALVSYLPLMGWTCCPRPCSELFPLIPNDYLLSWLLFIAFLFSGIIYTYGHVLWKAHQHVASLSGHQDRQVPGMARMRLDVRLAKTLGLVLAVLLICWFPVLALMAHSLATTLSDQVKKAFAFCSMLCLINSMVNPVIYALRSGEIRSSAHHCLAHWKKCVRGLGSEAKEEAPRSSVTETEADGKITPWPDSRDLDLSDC
T3 sequence (P34972 whole entry): as above
T2 sequence (P21554 whole entry): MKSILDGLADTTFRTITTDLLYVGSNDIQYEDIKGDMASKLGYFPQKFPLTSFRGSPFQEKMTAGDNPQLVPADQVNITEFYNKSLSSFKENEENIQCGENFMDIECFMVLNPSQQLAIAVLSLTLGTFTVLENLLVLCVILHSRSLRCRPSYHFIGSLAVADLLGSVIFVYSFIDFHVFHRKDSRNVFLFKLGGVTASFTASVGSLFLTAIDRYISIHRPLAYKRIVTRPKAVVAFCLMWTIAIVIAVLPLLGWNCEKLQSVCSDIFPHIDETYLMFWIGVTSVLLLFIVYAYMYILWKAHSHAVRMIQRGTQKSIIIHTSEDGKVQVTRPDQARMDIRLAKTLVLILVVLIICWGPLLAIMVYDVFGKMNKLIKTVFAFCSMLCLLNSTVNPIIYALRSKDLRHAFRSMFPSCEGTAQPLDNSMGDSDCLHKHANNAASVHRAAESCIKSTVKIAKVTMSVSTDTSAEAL

## C=Cn1c(C)cc2cc(C(=O)c3cccc(Cl)c3Cl)sc21 [Comp 29]
Human CB2 (hCB2)
  EC50: 100 to 1000 nM
[1]
  IC50: > 10000 nM
[2]
  IC50: 1000 to 10000 nM

## Cc1cc2cc(C(=O)c3cccc(Cl)c3Cl)sc2n1CCN1CCOCC1 [Compound 1, (2,3-dichlorophenyl)(5-methyl-6-(2-morpholinoethyl)-6H-thieno[2,3-b]pyrrol-2-yl)methanone]
Human CB2 (hCB2)
  EC50: < 100 nM
[1]
  IC50: 100 to 1000 nM
[2]
  IC50: < 100 nM

## CCCn1c(C)cc2cc(C(=O)c3cccc(Cl)c3Cl)sc21 [Compound 3, (2,3-Dichlorophenyl)(5-methyl-6-propyl-6H-thieno[2,3-b]pyrrol-2-yl)methanone]
Human CB2 (hCB2)
  EC50: < 100 nM
[1]
  IC50: 1000 to 10000 nM
[2]
  IC50: 100 to 1000 nM

## Cc1cc2cc(C(=O)c3ccccc3Cl)sc2n1CCN1CCOCC1 [Compound 5, (2-Chlorophenyl)(5-methyl-6-(2-morpholinoethyl)-61-1-thieno[2,3-b]pyrrol-2-yl)methanone]
Human CB2 (hCB2)
  EC50: < 100 nM
[1]
  IC50: 100 to 1000 nM
[2]
  IC50: < 100 nM

## Cc1cc2cc(C(=O)c3ccc(Cl)cc3)sc2n1CCN1CCOCC1 [Compound 6, (4-Chlorophenyl)(5-methyl-6-(2-morpholinoethyl)-6H-thieno[2,3-b]pyrrol-2-yl)methanone]
Human CB2 (hCB2)
  EC50: < 100 nM
[1]
  IC50: 1000 to 10000 nM
[2]
  IC50: 100 to 1000 nM

## Cc1cc2cc(C(=O)c3cccc(F)c3F)sc2n1CCN1CCOCC1 [Compound 8, (2,3-Difluorophenyl)(5-methyl-6-(2-morpholinoethyl)-6H-thieno[2,3-b]pyrrol-2-yl)methanone]
Human CB2 (hCB2)
  EC50: 100 to 1000 nM
[1]
  IC50: 1000 to 10000 nM
[2]
  IC50: 100 to 1000 nM

## Cc1cc2cc(C(=O)c3ccc(Cl)c(Cl)c3)sc2n1CCN1CCOCC1 [Compound 9, (3,4-Dichlorophenyl)(5-methyl-6-(2-morpholinoethyl)-6H-thieno[2,3-b]pyrrol-2-yl)methanone]
Human CB2 (hCB2)
  EC50: 1000 to 10000 nM
[1]
  IC50: 1000 to 10000 nM
[2]
  IC50: 100 to 1000 nM

## Cc1cc2cc(C(=O)c3cccc4c3OCC4)sc2n1CCN1CCOCC1 [Compound 11, (2,3-Dihydrobenzofuran-7-yl)(5-methyl-6-(2-morpholinoethyl)-6H-thieno[2,3-b]pyrrol-2-yl)methanone]
Human CB2 (hCB2)
  EC50: < 100 nM
[1]
  IC50: 100 to 1000 nM
[2]
  IC50: 100 to 1000 nM

## COc1ccccc1C(=O)c1cc2cc(C)n(CCN3CCOCC3)c2s1 [Compound 13, (2-Methoxyphenyl)(5-methyl-6-(2-morpholinoethyl)-6H-thieno[2,3-b]pyrrol-2-yl)methanone]
Human CB2 (hCB2)
  EC50: < 100 nM
[1]
  IC50: 100 to 1000 nM
[2]
  IC50: < 100 nM

## Cc1cc2cc(C(=O)c3ccccc3OC(F)(F)F)sc2n1CCN1CCOCC1 [Compound 15, (5-Methyl-6-(2-morpholinoethyl)-6H-thieno[2,3-b]pyrrol-2-yl)(2-(trifluoromethoxy)phenyl)methanone]
Human CB2 (hCB2)
  EC50: < 100 nM
[1]
  IC50: < 100 nM
[2]
  IC50: < 100 nM

## Cc1cc2cc(C(=O)c3cccnc3Cl)sc2n1CCN1CCOCC1 [Compound 17, (2-Chloropyridin-3-yl)(5-methyl-6-(2-morpholinoethyl)-6H-thieno[2,3-b]pyrrol-2-yl)methanone]
Human CB2 (hCB2)
  EC50: 100 to 1000 nM
[1]
  IC50: > 10000 nM
[2]
  IC50: 100 to 1000 nM

## Cc1cc2cc(C(=O)c3cccc(Cl)c3Cl)sc2n1CCC1CCOCC1 [Compound 18, (2,3-Dichlorophenyl)(5-methyl-6-(2-(tetrahydro-2H-pyran-4-yl)ethyl)-6H-thieno[2,3-b]pyrrol-2-yl)methanone]
Human CB2 (hCB2)
  EC50: < 100 nM
[1]
  IC50: 100 to 1000 nM
[2]
  IC50: < 100 nM

## COCCn1c(C)cc2cc(C(=O)c3cccc(Cl)c3Cl)sc21 [Compound 21, (2,3-Dichlorophenyl)(6-(2-methoxyethyl)-5-methyl-6H-thieno[2,3-b]pyrrol-2-yl)methanone]
Human CB2 (hCB2)
  EC50: < 100 nM
[1]
  IC50: 100 to 1000 nM
[2]
  IC50: 100 to 1000 nM

## Cc1cc2cc(C(=O)c3cccc(Cl)c3Cl)sc2n1CCN1CCCCC1 [Compound 23, (2,3-Dichlorophenyl)(5-methyl-6-(2-(piperidin-1-yl)ethyl)-6H-thieno[2,3-b]pyrrol-2-yl)methanone]
Human CB2 (hCB2)
  EC50: < 100 nM
[1]
  IC50: 100 to 1000 nM
[2]
  IC50: < 100 nM

## Cc1cc2cc(C(=O)c3cccc(Cl)c3Cl)sc2n1CC1CCCCN1C (stereo not drawn) [Compound 24, (2,3-Dichlorophenyl)(5-methyl-6((1-methylpiperidin-2-yl)methyl)-6H-thieno[2,3-b]pyrrol-2-yl)methanone]
Human CB2 (hCB2)
  EC50: < 100 nM
[1]
  IC50: 100 to 1000 nM
[2]
  IC50: < 100 nM

## Cc1c(Cl)c2cc(C(=O)c3cccc(Cl)c3Cl)sc2n1CCN1CCOCC1 [Compound 27, (4-chloro-5-methyl-6-(2-morpholinoethyl)-6H-thieno[2,3-b]pyrrol-2-yl)(2,3-dichlorophenyl)methanone]
Human CB2 (hCB2)
  EC50: < 100 nM
[1]
  IC50: < 100 nM
[2]
  IC50: < 100 nM

## Cc1cc2cc(C(=O)c3cccc(Cl)c3Cl)sc2n1CCN1CCCC1 [Compound 28, (2,3-Dichlorophenyl)(5-methyl-6-(2-(pyrrolidin-1-yl)ethyl)-6H-thieno[2,3-b]pyrrol-2-yl)methanone]
Human CB2 (hCB2)
  EC50: < 100 nM
[1]
  IC50: 100 to 1000 nM
[2]
  IC50: < 100 nM

## Cc1cc2cc(C(=O)c3cc(Cl)ccc3Cl)sc2n1CCN1CCOCC1 [Compound 35, (2,5-Dichlorophenyl)(5-methyl-6-(2-morpholinoethyl)-6H-thieno[2,3-b]pyrrol-2-yl)methanone]
Human CB2 (hCB2)
  EC50: < 100 nM
[1]
  IC50: 100 to 1000 nM
[2]
  IC50: < 100 nM

## COc1ccc(C(=O)c2cc3cc(C)n(CCN4CCOCC4)c3s2)cc1 [Compound 36, (4-methoxyphenyl)(5-methyl-6-(2-morpholinoethyl)-6H-thieno[2,3-b]pyrrol-2-yl)methanone]
Human CB2 (hCB2)
  EC50: < 100 nM
[1]
  IC50: 1000 to 10000 nM
[2]
  IC50: < 100 nM

## Cc1cc2cc(C(=O)c3cccc(Cl)c3Cl)sc2n1S(=O)(=O)N(C)C [Compound 41, 2-(2,3-Dichlorobenzoyl)-N,N,5-trimethyl-6H-thieno[2,3-b]pyrrole-6-sulfonamide]
Human CB2 (hCB2)
  EC50: < 100 nM
[1]
  IC50: 100 to 1000 nM
[2]
  IC50: < 100 nM

## Cc1cc2cc(C(=O)c3ccccc3N)sc2n1CCN1CCOCC1 [Compound 48, (2-Aminophenyl)(5-methyl-6-(2-morpholinoethyl)-6H-thieno[2,3-b]pyrrol-2-yl)methanone]
Human CB2 (hCB2)
  EC50: < 100 nM
[1]
  IC50: > 10000 nM
[2]
  IC50: < 100 nM

## COCCn1c(C)cc2cc(C(=O)c3ccc(OC)cc3)sc21 [Compound 49, (6-(2-Methoxyethyl)-5-methyl-6H-thieno[2,3-b]pyrrol-2-yl)(4-methoxyphenyl)methanone]
Human CB2 (hCB2)
  EC50: 100 to 1000 nM
[1]
  IC50: > 10000 nM
[2]
  IC50: 1000 to 10000 nM

## COc1ccc(C(=O)c2cc3cc(C)n(CCN4CCOC4=O)c3s2)cc1 [Compound 50, 3-(2-(2-(4-Methoxybenzoyl)-5-methyl-6H-thieno[2,3-b]pyrrol-6-yl)ethyl)oxazolidin-2-one]
Human CB2 (hCB2)
  EC50: 1000 to 10000 nM
[1]
  IC50: > 10000 nM
[2]
  IC50: 1000 to 10000 nM

## CCOc1ccc(C(=O)c2cc3cc(C)n(CCN4CCOCC4)c3s2)cc1 [Compound 55, (4-Ethoxyphenyl)(5-methyl-6-(2-morpholinoethyl)-6H-thieno[2,3-b]pyrrol-2-yl)methanone]
Human CB2 (hCB2)
  EC50: < 100 nM
[1]
  IC50: 1000 to 10000 nM
[2]
  IC50: 100 to 1000 nM

## Cc1cc2cc(C(=O)c3ccc(N(C)C)cc3)sc2n1CCN1CCOCC1 [Compound 59, (4-(Dimethylamino)phenyl)(5-methyl-6-(2-morpholinoethyl)-6H-thieno[2,3-b]pyrrol-2-yl)methanone]
Human CB2 (hCB2)
  EC50: 100 to 1000 nM
[1]
  IC50: > 10000 nM
[2]
  IC50: 1000 to 10000 nM

## Cc1cc2cc(C(=O)c3ccc(F)cc3Cl)sc2n1CCN1CCOCC1 [Compound 64, (2-Chloro-4-fluorophenyl)(5-methyl-6-(2-morpholinoethyl)-6H-thieno[2,3-b]pyrrol-2-yl)methanone]
Human CB2 (hCB2)
  EC50: < 100 nM
[1]
  IC50: 1000 to 10000 nM
[2]
  IC50: < 100 nM

## Cc1cc2cc(C(=O)c3ccc(OC(F)(F)F)cc3)sc2n1CCN1CCOCC1 [Compound 65, (5-Methyl-6-(2-morpholinoethyl)-6H-thieno[2,3-b]pyrrol-2-yl)(4-(trifluoromethoxy)phenyl)methanone]
Human CB2 (hCB2)
  EC50: 100 to 1000 nM
[1]
  IC50: 1000 to 10000 nM
[2]
  IC50: 100 to 1000 nM

## COc1ccc(C(=O)c2cc3cc(C)n(CCN4CCOCC4)c3s2)c(F)c1 [Compound 68, (2-Fluoro-4-methoxyphenyl)(5-methyl-6-(2-morpholinoethyl)-6H-thieno[2,3-b]pyrrol-2-yl)methanone]
Human CB2 (hCB2)
  EC50: < 100 nM
[1]
  IC50: 1000 to 10000 nM
[2]
  IC50: < 100 nM

## COc1ccc(C(=O)c2cc3cc(C)n(CCNS(C)(=O)=O)c3s2)cc1 [Compound 71, N-(2-(2-(4-Methoxybenzoyl)-5-methyl-6H-thieno[2,3-b]pyrrol-6-yl)ethyl)methanesulfonamide]
Human CB2 (hCB2)
  EC50: 100 to 1000 nM
[1]
  IC50: > 10000 nM
[2]
  IC50: 1000 to 10000 nM

## COCCN(C)CCn1c(C)cc2cc(C(=O)c3ccc(OC)nc3)sc21 [Compound 157]
Human CB2 (hCB2)
  EC50: 1000 to 10000 nM
[1]
  IC50: 100 to 1000 nM

## COc1ccc(C(=O)c2cc3cc(C)n(CC(OC)OC)c3s2)cn1 [Compound 161, (6-(2,2-dimethoxyethyl)-5-methyl-6H-thieno[2,3-b]pyrrol-2-yl)(6-methoxypyridin-3-yl)methanone]
Human CB2 (hCB2)
  EC50: 1000 to 10000 nM
[1]
  IC50: 100 to 1000 nM

## Cc1cc2cc(C(=O)c3ccc(O)cc3F)sc2n1CCN1CCOCC1 [Compound 165, (2-fluoro-4-hydroxyphenyl)(5-methyl-6-(2-morpholinoethyl)-6H-thieno[2,3-b]pyrrol-2-yl)methanone]
Human CB2 (hCB2)
  EC50: 100 to 1000 nM
[1]
  IC50: 100 to 1000 nM
